According to US8802439B2, “Methods for enhancing infectivity of retroviruses” (priority 2009, dated 2014):

What was measured:
[1] = test system: SIV-GFP; experiment: Infectivity of SIV-GFP virions (RT-normalized), GFP fluorescence via FACS; assay type: cell-based
Procedure: 293T cells were transfected with HIV-1-GFP, SIV-GFP, bMLV-GFP, and nMLV-GFP proviral constructs, and in each case CMV-VSV-G, in the presence or absence of PiB or excess Pin1 as described above. Released virions were normalized via RT assay (EnzChek® Reverse Transcriptase Assay Kit), and infectivity on naïve TZMb1 cells was analyzed by GFP fluorescence via FACS (% cells infected).
(§1) Infection assays for retrovirus: Single-round infections: CD4^+ TZM-bl 100,000 cells/well/mL were seeded onto 24-well plates 24 hours prior to infection. These cells were infected in quadruplicate to 24-well plates. Infectivity was scored using an enzymatic galactosidase activity assay. Specifically, infected TZM-bl cells were washed and lysed, and 20 μl of lysate was transferred to a 96-well plate for detecting β-galactosidase activity. 100 μl of reaction buffer Galacton-Star substrate (Applied Biosystems, Bedford, Mass.), diluted 1:50, was added to 20 μl of lysate, and the light emission was measured over 1 second in a microplate luminometer after 30 minutes incubation. For human PBMC infections, cells were exposed to 10 ng of wild-type virus for 6 hours, washed, and split into two flasks: one with 10 μM PiB added on day 0 and 3, and one without PiB. Replication was monitored by p24 ELISA. For measuring infectivity of GFP-virus, 50,000 TZMb1, sMAGI, OMK, Vero, BSC-1 and CV-1 cells/well/mL were seeded onto 6-well plates respectively 24 hours prior to infection. Viruses were used to infect in duplicate wells, incubated for 48 hours, washed with PBS, trypsinized, fixed in 1% formaldehyde and subsequently analyzed by fluorescence-activated cell sorting (FACS) for percentage cells infected.
[…]. In brief, 293T cells were transfected with a SIV-GFP (Mac293), a CMV driven plasmid encoding VSV-G envelope protein alone, or in the presence of 2.0 μM PiB, 10.0 μM PiB, 20.0 μM PiB, or 40.0 μM PiB. […] Infectivity was measured as GFP fluorescence via FACS. […]
We then examined effect of Pin blocking in non-human primate producer cells on viral infectivity. […] Infectivity was analyzed by GFP fluorescence via FACS. […]

[2] = test system: HIV-1; experiment: HIV-1 replication in human PBLs monitored by p24 ELISA; assay type: cell-based
Procedure: (E) Replication kinetics of wild-type HIV-1 in human PBLs is enhanced by Pin1 isomerase inhibitors. 2×10^6 PBLs from patient donors were challenged with HIV-1 in the presence (lighter squares, top) or absence (black circles, bottom) of 10 μM PiB, which was added again at day 3 to maintain drug pressure. Replication was monitored by sampling virus concentration in supernatants via p24 ELISA.
Cell Lines and PBMCs: The TZM-bl cell line was obtained through the NIH AIDS Research and Reference Reagent Program, Division of AIDS, NIAID, NIH: TZM-bl from Dr. John C. Kappes, Dr. Xiaoyun Wu and Tranzyme Inc. The sMAGI cell line was obtained through the AIDS Research and Reference Reagent Program, Division of AIDS, NIAID, NIH: CMMT-CD4-LTR-β-Gal (sMAGI) from Dr. Julie Overbaugh. African green kidney BS-C-1 CCL-26, African green kidney CV-1 CCL-70, African green kidney Vero CCL-81, owl kidney OMK(637-69) CRL-1556 and 293T cell lines were obtained from ATCC. To generate PBMCs, human blood from normal healthy donors (General Clinical Research Center, TSR1) was fractionated via gradient centrifugation through histopaque-1077 (Sigma-Aldrich). Peripheral blood lymphocytes (PBLs) were cultured in RPMI supplemented with 20% FBS, 20 U ml^−1 IL-2.
as §1, with “infected. […]” for “infected.”
PBLs from human donors were challenged with HIV-1 in the presence (squares) or absence (circles) of 10 μM PiB. Replication was monitored by sampling virus concentration in supernatants via p24 ELISA. […]

CCOC(=O)CN1C(=O)c2ccc3c4c(ccc(c24)C1=O)C(=O)N(CC(=O)OCC)C3=O [PiB, diethyl-1,3,6,8-tetrahydro-1,3,6,8-tetraoxobenzo[lmn][3,8]phenanthroline-2,7-diacetate]
infectivity of VSV-G pseudotyped macaque SIV-GFP ([1]; produced in 293T with 2.0, 10.0, 20.0 or 40.0 μM PiB): enhanced infectivity in a dose dependent manner
boost of SIV-GFP infectivity ([1]; produced in 293T with PiB, TZMb1 cells): 1.5 fold
infectivity of SIV produced in non-human primate cells ([1]; sMAGI, Vero, CV-1 (b135 also OMK) producer cells, human TZM/reporter cells): enhanced infectivity
replication kinetics of wild-type HIV-1 in human PBLs ([2]; 10 μM PiB, added again at day 3): enhanced
elevated replication kinetics versus untreated ([2]; human PBLs, 10 μM PiB, after six days, average of two donors): seven fold
increase in infectivity versus untreated ([2]; human PBLs, day 5): seven-fold
p24 in supernatant at peak replicative differential ([2]; human PBLs, day 5, untreated 0.2 μg/ml): 1.4 µg/mL
